The record followed here is patent US6872805B2 (Bristol-Myers Squibb Company, priority 2000, dated 2005).

Assay [1] has as its target HCV NS3/4A protease complex (Hepatitis C virus genotype 1a, UniProt P27958, C1454S/C1711G). In words: Recombinant HCV NS3/4A protease complex FRET peptide assay (strain not stated). The settings on record: IC50, NS3/4A protease enzyme assay, strain not stated; activity ranges. The format is biochemical.
Assay [2] deals with HCV replicon in Huh7 cells. Description: HCV replicon cell-based assay. The arrangement: species or system HCV strain 1B. Particulars: Hepatitis C virus, Huh-7, 96 h. Summed up:
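Genotype 1b subgenomic replicon Huh7 cells exposed to compound 4 days at 37° C in 4% FCS, 0.5% DMSO medium. EC50 from TaqMan RT-PCR of HCV RNA, normalized to total RNA by RiboGreen; CC50 from alamar Blue fluorescence after 4 h.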

[3] abbreviates: HCV replicon, Huh7 cells, 4 days, activity ranges, read-out: EC50.

Like-named read-outs stand apart in the source and are kept apart here.

Chain of HCV NS3/4A protease complex (P27958 1027-1711, stated change not applied): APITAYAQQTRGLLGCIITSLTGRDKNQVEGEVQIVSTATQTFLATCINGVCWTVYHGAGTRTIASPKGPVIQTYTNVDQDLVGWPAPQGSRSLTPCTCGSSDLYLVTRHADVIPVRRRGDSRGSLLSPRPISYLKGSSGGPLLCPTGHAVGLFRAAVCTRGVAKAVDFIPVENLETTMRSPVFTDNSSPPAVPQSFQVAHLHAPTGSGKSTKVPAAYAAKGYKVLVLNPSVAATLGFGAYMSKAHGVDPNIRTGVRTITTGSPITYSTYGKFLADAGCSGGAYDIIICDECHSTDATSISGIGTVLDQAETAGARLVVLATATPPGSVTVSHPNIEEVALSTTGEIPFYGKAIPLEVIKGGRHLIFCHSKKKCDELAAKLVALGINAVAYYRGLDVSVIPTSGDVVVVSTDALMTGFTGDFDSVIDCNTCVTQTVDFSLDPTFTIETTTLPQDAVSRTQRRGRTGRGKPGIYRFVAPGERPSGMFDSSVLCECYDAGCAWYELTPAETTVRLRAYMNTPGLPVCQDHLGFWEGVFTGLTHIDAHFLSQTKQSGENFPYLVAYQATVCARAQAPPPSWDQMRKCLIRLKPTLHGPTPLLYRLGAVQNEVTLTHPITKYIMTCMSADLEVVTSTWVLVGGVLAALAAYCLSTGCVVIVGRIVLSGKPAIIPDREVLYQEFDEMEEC
Chain of HCV NS3/4A protease complex (P27958 1027-1711, stated change not applied): as above

Consider `C=C[C@@H]1C[C@]1(NC(=O)C1C[C@@H](Oc2cc(-c3ccccc3)nc3cc(OC)ccc23)CN1C(=O)[C@@H](NC(=O)C1(O)CC1)C(C)(C)C)C(=O)NS(=O)(=O)C1CC1` (stereo partly drawn) [Compound 111, 1-{2S-[(1-hydroxy-cyclopropanecarbonyl)-amino]-3,3-dimethyl-butyryl}-4R-(7-methoxy-2-phenyl-quinolin-4-yloxy)pyrrolidine-2S-carboxylic acid (1R-cyclopropanesulfonylaminocarbonyl-2S-vinylcyclopropyl)amide], for which the IC50 in assay [1] is under 50 nM. For the same compound, the concentration giving a half-maximal response (EC50) in assay [2] (setting [3]) is under 5000 nM.

As to `C=C[C@@H]1C[C@]1(NC(=O)C1C[C@@H](Oc2cc(-c3ccccc3)nc3cc(OC)ccc23)CN1C(=O)[C@@H](NC(=O)CF)C(C)(C)C)C(=O)NS(=O)(=O)C1CC1` (stereo partly drawn) [Compound 112, 1-[2S-(2-Fluoro-acetylamino)-3,3-dimethyl-butyryl]-4R-(7-methoxy-2-phenyl-quinolin-4-yloxy)-pyrrolidine-2S-carboxylic acid (1R-cyclopropanesulfonylaminocarbonyl-2S-vinyl-cyclopropyl)-amide], in assay [1], the IC50 is under 50 nM. In addition, the EC50 in assay [2] is under 50 nM.

Turning to `C=C[C@@H]1C[C@]1(NC(=O)C1CC(Oc2cc(-c3ccccc3)nc3cc(OC)ccc23)CN1C(=O)[C@@H](NC(=O)OC)C(C)(C)C)C(=O)NS(=O)(=O)C1CC1` (stereo partly drawn) [Compound 113, {1S-[2S-(1R-cyclopropanesulfonylaminocarbonyl-2S-vinyl-cyclopropylcarbamoyl)-4R-(7-methoxy-2-phenyl-quinolin-4-yloxy)-pyrrolidine-1-carbonyl]-2,2-dimethyl-propyl}carbamic acid methyl ester], the IC50 in assay [1] is under 50 nM. Besides, in assay [2] (setting [3]), the half-maximal effective concentration (EC50) was under 50 nM.

Turning to `C=C[C@@H]1C[C@]1(NC(=O)C1CC(Oc2cc(-c3ccccc3)nc3cc(OC)ccc23)CN1C(=O)[C@@H](NC(=O)OCc1ccccc1)C(C)(C)C)C(=O)NS(=O)(=O)C1CC1` (stereo partly drawn) [Compound 114, {1S-[2S-(1R-cyclopropanesulfonylaminocarbonyl-2S-vinyl-cyclopropylcarbamoyl)-4R-(7-methoxy-2-phenyl-quinolin-4-yloxy)-pyrrolidine-1-carbonyl]-2,2-dimethyl-propyl}-carbamic acid benzyl ester], the half-inhibitory concentration (IC50) in assay [1] was under 50 nM. The EC50 in assay [2] (setting [3]) is under 50 nM.

`C=C[C@@H]1C[C@]1(NC(=O)C1CC(Oc2cc(-c3ccccc3)nc3cc(OC)ccc23)CN1C(=O)[C@@H](NC(=O)OCC)C(C)(C)C)C(=O)NS(=O)(=O)C1CC1` (stereo partly drawn) [Compound 115, {1S-[2S-(1R-cyclopropanesulfonylaminocarbonyl-2S-vinyl-cyclopropylcarbamoyl)-4R-(7-methoxy-2-phenyl-quinolin-4-yloxy)-pyrrolidine-1-carbonyl]-2,2-dimethyl-propyl}-carbamic acid ethyl ester]: the half-inhibitory concentration (IC50) in assay [1] was under 50 nM. Further, in assay [2] (setting [3]), the EC50 is under 50 nM.

As for `C=C[C@@H]1C[C@]1(NC(=O)C1CC(Oc2cc(-c3ccccc3)nc3cc(OC)ccc23)CN1C(=O)[C@@H](NC(=O)Oc1ccccc1)C(C)(C)C)C(=O)NS(=O)(=O)C1CC1` (stereo partly drawn) [Compound 116, {1S-[2S-(1R-cyclopropanesulfonylaminocarbonyl-2S-vinyl-cyclopropylcarbamoyl)-4R-(7-methoxy-2-phenyl-quinolin-4-yloxy)-pyrrolidine-1-carbonyl]-2,2-dimethyl-propyl}-carbamic acid phenyl ester], the 50% inhibitory concentration (IC50) in assay [1] was under 50 nM. The half-maximal effective concentration (EC50) in assay [2] (setting [3]) is under 50 nM.

With `C=C[C@@H]1C[C@]1(NC(=O)C1CC(Oc2cc(-c3ccccc3)nc3cc(OC)ccc23)CN1C(=O)[C@@H](NS(C)(=O)=O)C(C)(C)C)C(=O)NS(=O)(=O)C1CC1` (stereo partly drawn) [Compound 117, 1-(2S-methanesulfonylamino-3,3-dimethyl-butyryl)-4R-(7-methoxy-2-phenyl-quinolin-4-yloxy)-pyrrolidine-2S-carboxylic acid (1R-cyclopropanesulfonylamino-carbonyl-2S-vinyl-cyclopropyl)-amide], the IC50 in assay [1] was under 50 nM. For the same compound, the EC50 in assay [2] (setting [3]) is under 500 nM.

On to `C=C[C@@H]1C[C@]1(NC(=O)C1CC(Oc2cc(-c3ccccc3)nc3cc(OC)ccc23)CN1C(=O)[C@@H](NS(=O)(=O)C1CC1)C(C)(C)C)C(=O)NS(=O)(=O)C1CC1` (stereo partly drawn) [Compound 118, 1-(2S-cyclopropanesulfonylamino-3,3-dimethyl-butyryl)-4R-(7-methoxy-2-phenyl-quinolin-4-yloxy)-pyrrolidine-2S-carboxylic acid (1R-cyclopropanesulfonylamino-carbonyl-2S-vinyl-cyclopropyl)-amide], for which the half-maximal inhibitory concentration (IC50) in assay [1] was under 50 nM. Besides, the EC50 in assay [2] (setting [3]) was under 500 nM.

Take `C=C[C@@H]1C[C@]1(NC(=O)C1CC(Oc2cc(-c3ccccc3)nc3cc(OC)ccc23)CN1C(=O)[C@@H](NC(=O)CCl)C(C)(C)C)C(=O)NS(=O)(=O)C1CC1` (stereo partly drawn) [Compound 120, 1-[2S-(2-chloro-acetylamino)-3,3-dimethyl-butyryl]-4R-(7-methoxy-2-phenyl-quinolin-4-yloxy)-pyrrolidine-2S-carboxylic acid (1R-cyclopropanesulfonylaminocarbonyl-2S-vinylcyclopropyl)-amide]: the IC50 in assay [1] was under 50 nM. In assay [2] (setting [3]), the EC50 was under 50 nM.

Consider `C=C[C@@H]1C[C@]1(NC(=O)C1CC(Oc2cc(-c3ccccc3)nc3cc(OC)ccc23)CN1C(=O)[C@@H](NC(=O)C(=O)OC)C(C)(C)C)C(=O)NS(=O)(=O)C1CC1` (stereo partly drawn) [Compound 121, N-{1S-[2S-(1R-cyclopropanesulfonylaminocarbonyl-2S-vinyl-cyclopropylcarbamoyl)-4R-(7-methoxy-2-phenyl-quinolin-4-yloxy)-pyrrolidine-1-carbonyl]-2,2-dimethyl-propyl}-oxalamic acid methyl ester], for which the IC50 in assay [1] is under 50 nM. The EC50 in assay [2] (setting [3]) was under 500 nM.

Turning to `C=C[C@@H]1C[C@]1(NC(=O)C1CC(Oc2cc(-c3ccccc3)nc3cc(OC)ccc23)CN1C(=O)[C@@H](NC(=O)OCCF)C(C)(C)C)C(=O)NS(=O)(=O)C1CC1` (stereo partly drawn) [Compound 122, {1S-[2S-(1R-cyclopropanesulfonylaminocarbonyl-2S-vinyl-cyclopropylcarbamoyl)-4R-(7-methoxy-2-phenyl-quinolin-4-yloxy)-pyrrolidine-1-carbonyl]-2,2-dimethyl-propyl}-carbamic acid 2-fluoroethyl ester], the IC50 in assay [1] was under 50 nM. Also, the EC50 in assay [2] (setting [3]) was under 50 nM.

On to `C=COC(=O)N[C@H](C(=O)N1C[C@H](Oc2cc(-c3ccccc3)nc3cc(OC)ccc23)CC1C(=O)N[C@]1(C(=O)NS(=O)(=O)C2CC2)C[C@H]1C=C)C(C)(C)C` (stereo partly drawn) [Compound 123, {1S-[2S-(1R-cyclopropanesulfonylaminocarbonyl-2S-vinyl-cyclopropylcarbamoyl)-4R-(7-methoxy-2-phenyl-quinolin-4-yloxy)-pyrrolidine-1-carbonyl]-2,2-dimethyl-propyl}-carbamic acid vinyl ester], for which the IC50 in assay [1] is under 50 nM. Moreover, the EC50 in assay [2] (setting [3]) was under 50 nM.

On to `C#CCOC(=O)N[C@H](C(=O)N1C[C@H](Oc2cc(-c3ccccc3)nc3cc(OC)ccc23)CC1C(=O)N[C@]1(C(=O)NS(=O)(=O)C2CC2)C[C@H]1C=C)C(C)(C)C` (stereo partly drawn) [Compound 124, {1S-[2S-(1R-cyclopropanesulfonylaminocarbonyl-2S-vinyl-cyclopropylcarbamoyl)-4R-(7-methoxy-2-phenyl-quinolin-4-yloxy)-pyrrolidine-1-carbonyl]-2,2-dimethyl-propyl}-carbamic acid prop-2-ynyl ester], for which the IC50 in assay [1] is under 50 nM. Moreover, the concentration giving a half-maximal response (EC50) in assay [2] (setting [3]) is under 50 nM.

With `C=C[C@@H]1C[C@]1(NC(=O)C1C[C@@H](Oc2cc(-c3ccccc3)nc3cc(OC)ccc23)CN1C(=O)[C@@H](NC(=O)OCC(C)(C)C)C(C)(C)C)C(=O)NS(=O)(=O)C1CC1` (stereo partly drawn) [Compound 125, {1S-[2S-(1R-cyclopropanesulfonylaminocarbonyl-2S-vinyl-cyclopropylcarbamoyl)-4R-(7-methoxy-2-phenyl-quinolin-4-yloxy)-pyrrolidine-1-carbonyl]-2,2-dimethyl-propyl}-carbamic acid 2,2-dimethyl-propyl ester], the IC50 in assay [1] was under 50 nM. Besides, in assay [2] (setting [3]), the EC50 was under 50 nM.

Regarding `C=CCOC(=O)N[C@H](C(=O)N1C[C@H](Oc2cc(-c3ccccc3)nc3cc(OC)ccc23)CC1C(=O)N[C@]1(C(=O)NS(=O)(=O)C2CC2)C[C@H]1C=C)C(C)(C)C` (stereo partly drawn) [Compound 126, {1S-[2S-(1R-cyclopropanesulfonylaminocarbonyl-2S-vinyl-cyclopropylcarbamoyl)-4R-(7-methoxy-2-phenyl-quinolin-4-yloxy)-pyrrolidine-1-carbonyl]-2,2-dimethyl-propyl}-carbamic acid allyl ester], in assay [1], the IC50 is under 50 nM. Also, the EC50 in assay [2] (setting [3]) is under 50 nM.

Turning to `C=C[C@@H]1C[C@]1(NC(=O)C1C[C@@H](Oc2cc(-c3ccccc3)nc3cc(OC)ccc23)CN1C(=O)[C@@H](NC(=O)OCCCC)C(C)(C)C)C(=O)NS(=O)(=O)C1CC1` (stereo partly drawn) [Compound 127, {1S-[2S-(1R-cyclopropanesulfonylaminocarbonyl-2S-vinyl-cyclopropylcarbamoyl)-4R-(7-methoxy-2-phenyl-quinolin-4-yloxy)-pyrrolidine-1-carbonyl]-2,2-dimethyl-propyl}-carbamic acid butyl ester], in assay [1], the IC50 was under 50 nM. Besides, the concentration for a half-maximal effect (EC50) in assay [2] (setting [3]) is under 50 nM.

Turning to `C=C[C@@H]1C[C@]1(NC(=O)C1C[C@@H](Oc2cc(-c3ccccc3)nc3cc(OC)ccc23)CN1C(=O)[C@@H](Nc1ccccc1[N+](=O)[O-])C(C)(C)C)C(=O)NS(=O)(=O)C1CC1` (stereo partly drawn) [Compound 128, 1-[3,3-dimethyl-2S-(2-nitrophenylamino)-butyryl]-4R-(7-methoxy-2-phenyl-quinolin-4-yloxy)-pyrrolidine-2S-carboxylic acid (1R-cyclopropanesulfonyl-aminocarbonyl-2S-vinylcyclopropyl)amide], in assay [1], the IC50 is under 5000 nM. Moreover, the EC50 in assay [2] (setting [3]) was under 5000 nM.
